Data as given in article PMC2813863, “In Vivo Evaluation of α7 Nicotinic Acetylcholine Receptor Agonists [^11C]A-582941 and [^11C]A-844606 in Mice and Conscious Monkeys” (PLoS ONE, 2010).
“And” between values parts separate entries of the source, which are not always exact repeats. Equal entries are not always repeated.

Legend:
α4β2 = conditions: human receptor; cited from earlier work
α7 nAChRs [1] = molecular target: α7 nAChRs (Mus musculus, UniProt P49582); conditions: in vivo
Experimental: In the other group of mice, a blocking experiment to determine the α7 nAChRs-specific regional brain uptake of the tracers was carried out. Each tracer (2 MBq/0.055–0.096 nmol) was co-injected with each of the following blockers into mice, and 15 ([^11C]A-582941) or 30 ([^11C]A-844606) min later the mice were killed (n = 5) and the tissue uptake of ^11C was expressed as the %ID/g. […] Each blocker was dissolved in 1N HCl to 40 mg/ml and diluted up to 0.4 mg/ml with saline. The co-injected dose was 1 mg/kg. In the control mice the same amount of 0.01 N HCl in saline was co-injected.

[2] = cited from earlier work
[3] = molecular target: heteromeric α4β2 subtypes; conditions: rat brain membranes; read-out: K i, [^3H]cytisine binding; cited from earlier work
>75 binding sites = conditions: 10 µM, exception 5-HT3 receptors; cited from earlier work
5-HT3 receptors [4] = conditions: cited from earlier work
5-HT3 receptors [5] = test: Displacement of [^3H]-BRL 43694 (Granisetron) binding
α7 nAChRs [6] = molecular target: α7 nAChRs (Macaca mulatta, UniProt Q866A2); conditions: rhesus monkey, in vivo
From the text: Four young-adult male rhesus monkeys (Macaca mulatta) weighing from 4 to 6 kg were used for PET measurements. The monkeys were trained for the protocol as described previously. The magnetic resonance images (MRI) of all monkeys were obtained with a Toshiba MRT-50A/II (0.5T) under anesthesia with pentobarbital. The stereotactic coordinates of PET and MRI were adjusted based on the orbitomeatal (OM) line with monkeys secured in a specially designed head holder. At least 1 month before the PET study, an acrylic plate, with which the monkey was fixed to the monkey chair, was attached to the head under pentobarbital anesthesia as described previously.
PET data were collected on a high-resolution PET scanner (SHR-7700; Hamamatsu Photonics K.K., Hamamatsu, Japan). The camera consists of 16 detector rings and acquires 20 slices at a center-to-center interval of 3.6 mm with a transaxial resolution of 2.6 mm full width at half maximum. After an overnight fast, the monkey was fixed to the monkey chair with stereotactic coordinates aligned parallel to the OM line. A cannula was implanted in the posterior tibial vein, and [^11C]A-582941 or [^11C]A-844606 (1152–1336 MBq/26.8–63.1 nmol) was injected into the monkey through the venous cannula. PET images were acquired over 91 min (10 sec ×6 frames, 30 sec ×6 frames, 1 min ×12 frames, and 3 min ×25 frames). PET scans were reconstructed using a filtered backprojection method in a 100×100 matrix, with a voxel size of 1.2 mm ×1.2 mm ×3.6 mm. Summed image of late phase (from 70 to 91 min post-injection) was calculated as a static SUV (activity/ml tissue)/(injected activity/g body weight) image. Each MRI was coregistered to an early (from 0 to 20 min) summed image using normalized mutual information, and ROIs were placed on the summed image with reference to the coregistered MRI. Three monkeys underwent [^11C]A-582941 scan morning, and then two of the three monkeys underwent [^11C]A-844606 afternoon (baseline). Within 6 months the last one of the three monkeys underwent two [^11C]A-844606 scans in the baseline (morning) and blocking (afternoon) conditions 30 min after injection of SSR180711 (5.0 mg/kg, i.v.), and the fourth monkey underwent two [^11C]A-582941 scans in the baseline and blocking conditions in the same way.
For the semi-quantitative analysis of PET data, arterial samples were obtained every 8 sec from injection to 64 sec, and then again at 1.5, 2.5, 4, 6, 10, 20, 30, 45, 60, and 90 min after each tracer injection. Blood samples were centrifuged to separate the plasma, weighed, and subjected to radioactivity measurement. For metabolite analysis, methanol was added to some plasma samples, the resulting solutions were centrifuged, and the supernatants were developed with TLC plates (AL SIL G/UV; Whatman, Kent, UK) using a mobile phase of dichloromethane/diethyl ether/ethanol/triethylamine (20/20/2/2, v/v/v/v). At each sampling time point, the ratio of radioactivity in the unmetabolized fraction to that in the total plasma (metabolite plus unmetabolite) was determined using a phosphoimaging plate (BAS-1500 MAC; Fuji Film Co., Tokyo, Japan). The pTACs corrected for metabolite were obtained. The tTACs in each region of interest (ROI) in the brain were calculated as the %ID/ml or as a standardized uptake value (SUV), (activity/ml tissue)/(injected activity/g body weight). Using the tTACs and the metabolite-corrected pTAC, the V T for each tracer was evaluated by Logan graphical analysis.

[7] = type: in vivo, mice; conditions: mouse, in vivo, iv
Experimental: Each tracer was intravenously injected into mice, and then the animals were killed by cervical dislocation at 1, 5, 15, 30 and 60 min after injection (n = 4). The body weight of the mice was 34.7±1.2 g. The injected doses of tracers were 2 MBq/0.049–0.051 nmol. Blood was collected by heart puncture and tissues were harvested. The carbon-11 in the samples was counted with an auto-gamma-counter (LKB Wallac Compu-gamma 1282CS, Turku, Finland) and the tissues were weighed. The tissue uptake of carbon-11 was expressed as the %ID/g.

Sequence of α7 nAChRs (Mus musculus, UniProt P49582) (P49582 23-502): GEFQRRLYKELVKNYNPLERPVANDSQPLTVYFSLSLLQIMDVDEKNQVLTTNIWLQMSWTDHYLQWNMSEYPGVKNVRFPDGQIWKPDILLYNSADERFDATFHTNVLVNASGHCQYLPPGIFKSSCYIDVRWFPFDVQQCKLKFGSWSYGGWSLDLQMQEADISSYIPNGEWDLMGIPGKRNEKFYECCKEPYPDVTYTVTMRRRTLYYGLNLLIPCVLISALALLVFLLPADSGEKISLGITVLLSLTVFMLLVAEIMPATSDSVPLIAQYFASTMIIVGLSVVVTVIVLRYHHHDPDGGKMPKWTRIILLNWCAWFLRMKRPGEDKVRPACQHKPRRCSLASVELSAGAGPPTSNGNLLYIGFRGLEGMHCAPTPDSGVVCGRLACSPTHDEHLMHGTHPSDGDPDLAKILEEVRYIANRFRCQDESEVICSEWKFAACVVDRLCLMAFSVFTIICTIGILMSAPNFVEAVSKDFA
Sequence of α7 nAChRs (Macaca mulatta, UniProt Q866A2) (Q866A2 23-502): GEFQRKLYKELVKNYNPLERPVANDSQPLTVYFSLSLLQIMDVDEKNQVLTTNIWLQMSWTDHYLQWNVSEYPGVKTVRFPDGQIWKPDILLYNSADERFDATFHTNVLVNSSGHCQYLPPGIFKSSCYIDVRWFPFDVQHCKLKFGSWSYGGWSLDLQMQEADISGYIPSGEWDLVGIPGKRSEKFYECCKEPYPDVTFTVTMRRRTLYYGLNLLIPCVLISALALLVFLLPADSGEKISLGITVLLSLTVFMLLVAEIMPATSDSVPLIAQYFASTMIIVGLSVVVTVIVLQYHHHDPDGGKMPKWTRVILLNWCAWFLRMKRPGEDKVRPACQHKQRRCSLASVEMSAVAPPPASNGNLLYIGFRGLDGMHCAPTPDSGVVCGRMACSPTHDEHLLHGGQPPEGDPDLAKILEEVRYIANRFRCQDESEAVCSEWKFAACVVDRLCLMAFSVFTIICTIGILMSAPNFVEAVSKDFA

O=C(Oc1ccc(Br)cc1)N1CCN2CCC1CC2 [SSR180711]
IC50 (α4β2): > 50 µM
% Injected dose/g tissue, Cerebellum (α7 nAChRs [1]): 3.32±0.25 % Injected dose/g tissue and 5.10±0.69 % Injected dose/g tissue
% Injected dose/g tissue, Cerebral cortex (α7 nAChRs [1]): 5.02±0.46 % Injected dose/g tissue and 8.43±1.07 % Injected dose/g tissue
% Injected dose/g tissue, Hippocampus (α7 nAChRs [1]): 4.63±0.51 % Injected dose/g tissue and 6.26±0.64 % Injected dose/g tissue
% Injected dose/g tissue, Hypothalamus (α7 nAChRs [1]): 3.49±0.36 % Injected dose/g tissue and 4.74±0.70 % Injected dose/g tissue
% Injected dose/g tissue, Medulla oblongata (α7 nAChRs [1]): 3.15±0.14 % Injected dose/g tissue and 5.35±0.33 % Injected dose/g tissue
% Injected dose/g tissue, Midbrain (α7 nAChRs [1]): 3.91±0.45 % Injected dose/g tissue and 6.69±0.79 % Injected dose/g tissue
% Injected dose/g tissue, Striatum (α7 nAChRs [1]): 4.19±1.04 % Injected dose/g tissue and 7.32±1.84 % Injected dose/g tissue
% Injected dose/g tissue, Whole brain (α7 nAChRs [1]): 4.21±0.39 % Injected dose/g tissue and 6.82±0.64 % Injected dose/g tissue

CN1CC2CN(c3ccc(-c4ccccc4)nn3)CC2C1 (stereo not drawn) [A-582941, 2-methyl-5-[6-phenylpyridazine-3-yl]octahydropyrrolo[3,4-c]pyrrole]
% Injected dose/g tissue, Blood (α7 nAChRs [1]): 0.61±0.07 % Injected dose/g tissue
% Injected dose/g tissue, Cerebellum (α7 nAChRs [1]): 5.17±0.97 % Injected dose/g tissue
% Injected dose/g tissue, Cerebral cortex (α7 nAChRs [1]): 8.38±1.22 % Injected dose/g tissue
% Injected dose/g tissue, Hippocampus (α7 nAChRs [1]): 6.48±1.31 % Injected dose/g tissue
% Injected dose/g tissue, Hypothalamus (α7 nAChRs [1]): 4.76±1.17 % Injected dose/g tissue
% Injected dose/g tissue, Medulla oblongata (α7 nAChRs [1]): 5.58±1.26 % Injected dose/g tissue
% Injected dose/g tissue, Midbrain (α7 nAChRs [1]): 5.80±1.46 % Injected dose/g tissue
% Injected dose/g tissue, Striatum (α7 nAChRs [1]): 6.81±1.05 % Injected dose/g tissue
% Injected dose/g tissue, Whole brain (α7 nAChRs [1]): 6.71±1.09 % Injected dose/g tissue
clog P [2]: 2.3
pKa, N-methylated tertiary amine [2]: 8.75
pKa, aminopyridazine [2]: 4.44
log D at pH 7.4 ([2]; pH 7.4): 1.0
Ki [3]: > 100 µM
displacement of binding of >75 binding sites (>75 binding sites): did not show significant displacement
displacement of [^3H]-BRL 43694 (Granisetron) binding (5-HT3 receptors [4]; at 10 µM): > 85%
Ki (5-HT3 receptors [4]; read-out: K i for 5-HT3 receptors): 0.154 µM
K i for 5-HT3 receptors relative to that for α7 nAChRs (5-HT3 receptors [5]): ~15 fold

[11CH3]N1CC2CN(c3ccc4oc5ccccc5c(=O)c4c3)CC2C1 (stereo not drawn) [[^11C]A-844606, 2-(5-[^11C]Methyl-hexahydro-pyrrolo[3,4-c]pyrrol-2-yl)-xanthene-9-one]
V T Baseline, Cerebellum (α7 nAChRs [6]; male): 95.9 mL/g
V T Baseline, Frontal cortex (α7 nAChRs [6]; male): 132.2 mL/g
V T Baseline, Hippocampus (α7 nAChRs [6]; male): 123.1 mL/g
V T Baseline, Thalamus (α7 nAChRs [6]; male): 141.5 mL/g
V T SSR180711, Cerebellum (α7 nAChRs [6]; male): 52.8 mL/g
V T SSR180711, Frontal cortex (α7 nAChRs [6]; male): 65.3 mL/g
V T SSR180711, Hippocampus (α7 nAChRs [6]; male): 57.5 mL/g
V T SSR180711, Thalamus (α7 nAChRs [6]; male): 69.3 mL/g
V T, cerebellum (mean ± SD) (α7 nAChRs [6]; male): 95.2±32.8
V T, cerebellum (range) (α7 nAChRs [6]; male): 62.1–127.7
V T, frontal cortex (mean ± SD) (α7 nAChRs [6]; male): 130.9±40.4
V T, frontal cortex (range) (α7 nAChRs [6]; male): 89.8–170.6
V T, hippocampus (mean ± SD) (α7 nAChRs [6]; male): 118.5±33.6
V T, hippocampus (range) (α7 nAChRs [6]; male): 82.9–149.6
V T, thalamus (mean ± SD) (α7 nAChRs [6]; male): 138.6±42.3
V T, thalamus (range) (α7 nAChRs [6]; male): 95.0–179.4
time at which brain radioactivity reached a plateau (α7 nAChRs [6]; male): 40 to 60 min
time at which radioactivity in the cerebellum reached a plateau (α7 nAChRs [6]; male): 40 min
% decrease of V T, Cerebellum (α7 nAChRs [6]): 45.0%
% decrease of V T, Frontal cortex (α7 nAChRs [6]): 50.6%
% decrease of V T, Hippocampus (α7 nAChRs [6]): 53.3%
% decrease of V T, Thalamus (α7 nAChRs [6]): 51.0%
decrease of V T by pretreatment with SSR180711 (α7 nAChRs [6]): ~50%
% Injected dose/g tissue, Blood (α7 nAChRs [1]): 0.57±0.11 % Injected dose/g tissue
% Injected dose/g tissue, Cerebellum (α7 nAChRs [1]): 4.54±0.63 % Injected dose/g tissue
% Injected dose/g tissue, Cerebral cortex (α7 nAChRs [1]): 7.63±0.98 % Injected dose/g tissue
% Injected dose/g tissue, Hippocampus (α7 nAChRs [1]): 4.46±0.90 % Injected dose/g tissue
% Injected dose/g tissue, Hypothalamus (α7 nAChRs [1]): 4.21±1.55 % Injected dose/g tissue
% Injected dose/g tissue, Medulla oblongata (α7 nAChRs [1]): 5.25±0.95 % Injected dose/g tissue
% Injected dose/g tissue, Midbrain (α7 nAChRs [1]): 5.43±0.75 % Injected dose/g tissue
% Injected dose/g tissue, Striatum (α7 nAChRs [1]): 5.01±2.00 % Injected dose/g tissue
% Injected dose/g tissue, Whole brain (α7 nAChRs [1]): 5.83±0.56 % Injected dose/g tissue
time of peak radioactivity in the brain [7]: 30 min
